Values of other authors, collected in patent US20140093564A1, “PHARMACEUTICAL COMPOSITIONS OF COMBINATIONS OF DIPEPTIDYL PEPTIDASE-4 INHIBITORS WITH SIMVASTATIN” (MERCK SHARP & DOHME LTD., priority 2011, published 2014).

Conditions: oral administration, human Type 2 diabetics

N[C@@H](CC(=O)N1CCn2c(nnc2C(F)(F)F)C1)Cc1cc(F)c(F)cc1F [sitagliptin, (2R)-4-oxo-4-[3-(trifluoromethyl)-5,6-dihydro[1,2,4]triazolo[4,3-α]pyrazin-7(8H)-yl]-1-(2,4,5-trifluorophenyl)butan-2-amine]
HbA1c levels: significantly reduced | fasting glucose: reduce | postprandial glucose excursion: reduce

N#C[C@@H]1CCCN1C(=O)CNC12CC3CC(CC(O)(C3)C1)C2 [vildagliptin, (S)-1-[(3-hydroxy-1-adamantyl)amino]acetyl-2-cyano-pyrrolidine]
HbA1c levels: significantly reduced | fasting glucose: reduce | postprandial glucose excursion: reduce
